pIC50: −log10 of the molar value. Values belong to the compound of their own block, whether it stands above or below them. Square brackets hold non-standard residues; d marks the D form. Ends that are not written are not given here. Peptide text beside a SMILES is read from it. * marks the point of attachment. Propanoyl(3,3-Ph2) = O=C(CC(c1ccccc1)c1ccccc1)*; 2Nal = N[C@@H](Cc1ccc2ccccc2c1)C(=O)O; Chg = N[C@H](C(=O)O)C1CCCCC1; R111 = not defined here
Key:
[1] = target: T1, myostatin (Homo sapiens, UniProt O14793); assay: cell-based; details: for remaining activity at 0.3 µM: HEK293, read-out: luciferase activity (relative; myostatin without test sample = 100%)
T1 sequence (O14793 267-375): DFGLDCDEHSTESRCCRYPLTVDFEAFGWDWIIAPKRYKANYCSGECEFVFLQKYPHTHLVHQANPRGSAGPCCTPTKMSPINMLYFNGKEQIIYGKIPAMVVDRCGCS
Procedure: Human embryo kidney cell HEK293 cells were cultured in a 5% (v/v) CO2 incubator set to 37° C. using DMEM (NACALAI TESQUE, INC.) including a 10% (v/v) fetal bovine serum (FBS) added with a 1% (v/v) non-essential amino acid (Wako Pure Chemical Corporation).
(2) In Vitro Reporter Assay
HEK293 cells were seeded on a D-Lys-corted 96-well transparent plate (Thermo Fisher Scientific Inc.) in an amount of 2.0×10^4 cells (100 μL DMEM+10% (v/v) FBS) per well and were cultured for 24 hours.
The cells were cultured at 37° C. for 24 hours, and after the cell culture solution was replaced with serum-free DMEM, the cells were cultured for 8 hours. Incidentally, pGL4.48 [luc2P/SBE/Hygro] includes firefly luciferase reporter gene luc2P under Smad binding region (SBE) control, and when a signaling pathway by the myostatin is activated, intracellular Smad forms a complex, and the complex is bonded to SBE to promote transcription of luc2P.
The peptide as a test sample was suspended as a stock solution using DMSO to become 10 mM and stored at −30° C. Before 1 hour from addition to the culture medium, the peptide and a myostatin (Merck Millipore Corp.) were suspended with serum-free DMEM and left to stand still at room temperature (25° C.) for 20 minutes. Subsequently, a peptide with an arbitrary final concentration (0.3 to […]) and 8 ng/mL of myostatin were added to the culture medium, and then culturing was performed for 4 hours. After culturing for 4 hours, the culture solution was removed by an aspirator and the cells were washed with 1×PBS. Thereafter, Passive Lysis buffer (Promega Corporation) was added in an amount of 50 μL per well to dissolve the cells. The dissolving solution was subjected to centrifugal separation at 4500 rpm for 6 minutes under the condition of 4° C. After 20 μL of supernatant subjected to centrifugal separation was transferred to a white 96-well plate (Costar), 50 μL of Luciferase Assay Reagent (Promega Corporation) was then added, emission was detected by Luminoskan Ascent (Thermo Fisher Scientific Inc.), and a firefly luciferase activity was measured. Further, after 50 μL of Stop & Glo Buffer (Promega Corporation) was added, emission was detected by Luminoskan Ascent, and a Renilla luciferase activity was measured to be regarded as an internal control.

[2] = system: calf muscles of mdx mice and C57BL/6 mice; assay: Influence on calf muscles of mdx mice and C57BL/6 mice (cross-sectional areas of muscle fibers); assay type: in vivo
Procedure: Evaluation was performed by the following method in order to check the muscle mass increasing effect in vivo of nPDM-55/E31R prepared in Synthesis Example 36.
nPDM-55/E31R was dissolved in saline to become 0.75 mM. 40 μL of nPDM-55/E31R was intramuscularly administered into the calf muscles of both legs of anesthetized mdx mice and C57BL/6 mice aged 5 weeks (all mice were males, purchased from CLEA Japan, Inc.) (40 μL of saline was intramuscularly administered into the calf muscles of both legs of control mice). After 2 weeks, the same amount of nPDM-55/E31R was administered to the same site again. After further 4 weeks, the mice were subjected to necropsy, the calf muscles were excised from the both legs and transverse frozen sections (6 μm) were formed using cryostat. Regarding three sections stained with Hematoxylin-Eosin and randomly selected, cross-sectional areas of muscle fibers (200 fibers) were analyzed by a fluorescence microscope BZX700 (KEYENCE CORPORATION).

[3] = system: mdx mice; assay: Influence on serum creatine kinase level of mdx mice; assay type: in vivo; details: mdx male mice; 40 μL of 0.75 mM intramuscular into calf muscles of both legs on day 0 and day 14
Procedure: Evaluation was performed by the following method in order to check the effect of nPDM-55/E31R prepared in Synthesis Example 36 to a serum creatine kinase (CK) value in mdx mice. Incidentally, 3d prepared in Synthesis Example 75 was used as Comparative Example.
nPDM-55/E31R and 3d were dissolved in saline to become 0.75 mM. 40 μL of nPDM-55/E31R was intramuscularly administered into the calf muscles of both legs of anesthetized mdx mice aged 5 weeks (all mice were males, purchased from CLEA Japan, Inc.). After 2 weeks, the same amount of nPDM-55/E31R was administered to the same site again. Serum samples were collected immediately before administration of nPDM-55/E31R and 3d (day 0, day 14) and further also collected after 4 weeks (day 42). […] From those results, it was shown that nPDM-55/E31R has an effect of continually maintaining the CK level in blood to be low as compared to 3d.

Compound: CC[C@H](C)[C@H](NC(=O)[C@H](CCC(N)=O)NC(=O)[C@@H](NC(=O)[C@H](CCCCN)NC(=O)[C@@H](NC(=O)[C@H](Cc1ccc2ccccc2c1)NC(=O)[C@H](CCCNC(=N)N)NC(=O)[C@@H](NC(=O)[C@H](Cc1ccc(O)cc1)NC(=O)[C@@H](N)Cc1ccc(O)cc1)[C@@H](C)CC)[C@@H](C)CC)[C@@H](C)CC)C(=O)N[C@@H](Cc1c[nH]c2ccccc12)C(=O)N[C@@H](CO)C(=O)N[C@@H](CCCCN)C(=O)N[C@@H](CC(C)C)C(=O)N[C@@H](CCCNC(=N)N)C(=O)N[C@@H](CC(C)C)C(N)=O [nPDM-69, YYIR-Naa-IKIQIWSKLRL-NH2] (H-YYIR[2Nal]IKIQIWSKLRL-NH2)
remaining activity at 0.3 µM [1]: ≤ 60%

Compound: CC[C@H](C)[C@H](NC(=O)[C@H](Cc1ccc(O)cc1)NC(=O)CC(c1ccccc1)c1ccccc1)C(=O)N[C@@H](CCCNC(=N)N)C(=O)N[C@@H](Cc1c[nH]c2ccccc12)C(=O)N[C@H](C(=O)N[C@@H](CCCNC(=N)N)C(=O)N[C@H](C(=O)N[C@@H](CCC(N)=O)C(=O)N[C@H](C(=O)N[C@@H](Cc1c[nH]c2ccccc12)C(=O)N[C@@H](CO)C(=O)N[C@@H](CCCNC(=N)N)C(=O)N[C@H](C(=O)N1CCC[C@H]1C(=O)N[C@@H](CC(C)C)C(N)=O)C1CCCCC1)[C@@H](C)CC)C1CCCCC1)[C@@H](C)CC [nPDM-85, R^114-YIRWIR-Chg-QIWSR-Chg-PL-NH2] ({Propanoyl(3,3-Ph2)}-YIRWIR[Chg]QIWSR[Chg]PL-NH2)
remaining activity at 0.3 µM [1]: ≤ 60%

Compound: R^111-WYIEWIKIQIISKLRL-NH2 (R111-WYIEWIKIQIISKLRL-NH2; reading uncertain; also: printed as R^111-WYIEWIKIQIISKLRL-NH2) [PDM-27]
myostatin inhibitory activity (concentration-dependent evaluation) ([1]; at a concentration of 1 μM or more, 8 ng/mL myostatin, HEK293): significant myostatin inhibitory activity

Compound: SRIEAIKIQILSKLRL-NH2 (listed as Mus musculus) [mMPS(28-43), reference compound]
myostatin inhibitory activity ([1]; final concentration of 1 μM): a high myostatin inhibitory activity was not recognized
myostatin inhibitory activity ([1]; final concentration of 10 μM): the myostatin inhibitory activity was not recognized

Compound: WYIEAIKIQILSKLRL-NH2 [d-14, reference compound]
myostatin inhibitory activity ([1]; final concentration of 1 μM): a high myostatin inhibitory activity was not recognized

Now from value to compound, other results behind:

remaining activity at 0.3 µM [1]: ≤ 60%
Compound: CC[C@H](C)[C@H](NC(=O)[C@H](CCC(N)=O)NC(=O)[C@@H](NC(=O)[C@H](CCCCN)NC(=O)[C@@H](NC(=O)[C@H](Cc1c[nH]c2ccccc12)NC(=O)[C@H](CCCNC(=N)N)NC(=O)[C@@H](NC(=O)[C@H](Cc1ccc(O)cc1)NC(=O)[C@@H](N)Cc1c[nH]c2ccccc12)[C@@H](C)CC)[C@@H](C)CC)[C@@H](C)CC)C(=O)N[C@@H](Cc1c[nH]c2ccccc12)C(=O)N[C@@H](CO)C(=O)N[C@@H](CCCCN)C(=O)N[C@@H](CC(C)C)C(=O)N[C@@H](CCCNC(=N)N)C(=O)N[C@@H](CC(C)C)C(N)=O [nPDM-55/E31R, WYIRWIKIQIWSKLRL-NH2] (H-WYIRWIKIQIWSKLRL-NH2)
cross-sectional areas of muscle fibers of calf muscles ([2]; mdx and C57BL/6 male mice, 40 μL of 0.75 mM intramuscular into both legs, again after 2 weeks, after further 4 weeks, vs saline mice): increased
nature of the obtained muscular hypertrophy (analysis images) ([2]; mdx and C57BL/6 mice, Hematoxylin-Eosin stained sections): not inflammatory
serum creatine kinase (CK) level on day 14 versus day 0 [3]: clearly lower value
serum creatine kinase (CK) level on day 42 [3]: clearly lower value

remaining activity at 0.3 µM [1]: ≤ 60%
Compound: CC[C@H](C)[C@H](NC(=O)[C@H](CCC(N)=O)NC(=O)[C@@H](NC(=O)[C@H](CCCCN)NC(=O)[C@@H](NC(=O)[C@H](Cc1c[nH]c2ccccc12)NC(=O)[C@H](CCCNC(=N)N)NC(=O)[C@@H](NC(=O)[C@H](Cc1ccc(O)cc1)NC(=O)[C@@H](N)Cc1c[nH]c2ccccc12)[C@@H](C)CC)[C@@H](C)CC)[C@@H](C)CC)C(=O)N[C@@H](Cc1c[nH]c2ccccc12)C(=O)N[C@@H](CO)C(=O)N[C@@H](CCCCN)C(=O)N[C@H](C(=O)N[C@@H](CCCNC(=N)N)C(=O)N[C@@H](CC(C)C)C(N)=O)C1CCCCC1 [nPDM-65, WYIRWIKIQIWSK-Chg-RL-NH2] (H-WYIRWIKIQIWSK[Chg]RL-NH2)

remaining activity at 0.3 µM [1]: ≤ 60%
Compound: CC[C@H](C)[C@H](NC(=O)[C@H](CCC(N)=O)NC(=O)[C@@H](NC(=O)[C@H](CCCCN)NC(=O)[C@@H](NC(=O)[C@H](Cc1c[nH]c2ccccc12)NC(=O)[C@H](CCCNC(=N)N)NC(=O)[C@@H](NC(=O)[C@H](Cc1ccc(O)cc1)NC(=O)[C@@H](N)Cc1c[nH]c2ccccc12)[C@@H](C)CC)[C@@H](C)CC)C1CCCCC1)C(=O)N[C@@H](Cc1c[nH]c2ccccc12)C(=O)N[C@@H](CO)C(=O)N[C@@H](CCCCN)C(=O)N[C@H](C(=O)N[C@@H](CCCNC(=N)N)C(=O)N[C@@H](CC(C)C)C(N)=O)C1CCCCC1 [nPDM-66, WYIRWIK-Chg-QIWSK-Chg-RL-NH2] (H-WYIRWIK[Chg]QIWSK[Chg]RL-NH2)

remaining activity at 0.3 µM [1]: ≤ 60%
Compound: CC[C@H](C)[C@H](NC(=O)[C@H](CCC(N)=O)NC(=O)[C@@H](NC(=O)[C@H](CCCNC(=N)N)NC(=O)[C@@H](NC(=O)[C@@H](Cc1c[nH]c2ccccc12)NC(=O)[C@H](CCCNC(=N)N)NC(=O)[C@@H](NC(=O)[C@H](Cc1ccc(O)cc1)NC(=O)[C@@H](N)Cc1c[nH]c2ccccc12)[C@@H](C)CC)[C@@H](C)CC)C1CCCCC1)C(=O)N[C@@H](Cc1c[nH]c2ccccc12)C(=O)N[C@@H](CO)C(=O)N[C@@H](CCCNC(=N)N)C(=O)N[C@H](C(=O)N1CCC[C@H]1C(=O)N[C@@H](CC(C)C)C(N)=O)C1CCCCC1 [nPDM-80, WYIRwIR-Chg-QIWSR-Chg-PL-NH2] (H-WYIR[dW]IR[Chg]QIWSR[Chg]PL-NH2)

remaining activity at 0.3 µM [1]: ≤ 60%
Compound: CC[C@H](C)[C@H](NC(=O)[C@H](CCC(N)=O)NC(=O)[C@@H](NC(=O)[C@H](CCCNC(=N)N)NC(=O)[C@@H](NC(=O)[C@@H](Cc1c[nH]c2ccccc12)NC(=O)[C@H](CCCNC(=N)N)NC(=O)[C@@H](NC(=O)[C@H](Cc1ccc(O)cc1)NC(=O)[C@@H](N)Cc1c[nH]c2ccccc12)[C@@H](C)CC)[C@@H](C)CC)C1CCCCC1)C(=O)N[C@@H](Cc1c[nH]c2ccccc12)C(=O)N[C@H](CO)C(=O)N[C@@H](CCCNC(=N)N)C(=O)N[C@H](C(=O)N1CCC[C@H]1C(=O)N[C@@H](CC(C)C)C(N)=O)C1CCCCC1 [nPDM-82, WYIRwIR-Chg-QIWsR-Chg-PL-NH2] (H-WYIR[dW]IR[Chg]QIW[dS]R[Chg]PL-NH2)

remaining activity at 0.3 µM [1]: ≤ 60%
pIC50 ([1]; read-out: IC50 value, myostatin inhibitory activity, concentration range of 0.016 to 2 μM): 6.88
Compound: CC[C@H](C)[C@H](NC(=O)[C@H](CCC(N)=O)NC(=O)[C@@H](NC(=O)[C@H](CCCCN)NC(=O)[C@@H](NC(=O)[C@@H](Cc1c[nH]c2ccccc12)NC(=O)[C@H](CCCNC(=N)N)NC(=O)[C@@H](NC(=O)[C@H](Cc1ccc(O)cc1)NC(=O)[C@@H](N)Cc1c[nH]c2ccccc12)[C@@H](C)CC)[C@@H](C)CC)C1CCCCC1)C(=O)N[C@@H](Cc1c[nH]c2ccccc12)C(=O)N[C@@H](CO)C(=O)N[C@@H](CCCCN)C(=O)N[C@H](C(=O)N[C@@H](CCCNC(=N)N)C(=O)N[C@@H](CC(C)C)C(N)=O)C1CCCCC1 [nPDM-86, WYIRwIK-Chg-QIWSK-Chg-RL-NH2] (H-WYIR[dW]IK[Chg]QIWSK[Chg]RL-NH2)
inhibitory activity relative to 3d ([1]; comparison of IC50 values): approximately two times higher inhibitory activity
